# Assay results: patent US10457707B2, “Substituted urea depsipeptide analogs as activators of the CLPP endopeptidase” (priority 2015, dated 2019)
# Like-named read-outs stand apart in the source and are kept apart here. *1 amine or outer side, *2 acyl side, *3 side chain or, on linkers, in order; H or OH if unused. Where a SMILES comes first, the peptide text is derived from it. Bridges are numbered along the chain shown (N, C = ends). [ ]: non-standard residue; d: D form. The star is where a group is joined. Phe(3,5-F2) = N[C@@H](Cc1cc(F)cc(F)c1)C(=O)O; NH(4-OCF3-phenyl) = FC(F)(F)Oc1ccc(N*)cc1; Pro(4S-Me) = C[C@@H]1CN[C@H](C(=O)O)C1; Pro(4R-Me) = C[C@H]1CN[C@H](C(=O)O)C1; Heptenoyl(2E) = CCCC/C=C/C(=O)*; aThr = C[C@H](O)[C@H](N)C(=O)O; X13 = c1nc2cc(N*)ccc2[nH]1; Pip = O=C(O)[C@@H]1CCCCN1; CO = O=C([*:1])[*:2]
# Experiments:
# Sa-ClpP [1] = molecular target: T1, Sa-ClpP (Staphylococcus aureus, UniProt Q2G036); experiment: ADEP displacement fluorescence polarization assay (FP probe ADEP 2591); assay type: binding
# T1 construct: made in house; host or cells: E. coli BL21(DE3)
# T1 sequence (Q2G036 1-195): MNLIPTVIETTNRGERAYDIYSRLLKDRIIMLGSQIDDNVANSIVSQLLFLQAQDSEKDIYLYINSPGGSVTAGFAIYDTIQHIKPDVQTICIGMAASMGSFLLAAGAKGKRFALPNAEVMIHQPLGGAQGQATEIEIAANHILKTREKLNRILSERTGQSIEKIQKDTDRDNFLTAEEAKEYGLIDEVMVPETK
# Protocol: A fluorescence polarization (FP) assay was used to determine the activity of the disclosed compounds in displacing an ADEP analogue from ClpP. Briefly, the assay was performed in black 384 well, flat bottom, low volume plates (Greiner Bio-One, Monroe, N.C., catalog #784076). 20 μL of a pre-equilibrated (1 hr, room temperature) master mix (15 μM Sa-ClpP, 2% DMSO (v/v) and 50 nM FP probe in Tris*HCl, pH 8.0)) was pipetted into each well using a Well-Mate (Thermo Scientific, Waltham, Mass.). Sa-ClpP was prepared as described above for the ClpP activation assay. The FP probe was ADEP 2591 (structure shown above). The ADEP 2591 comprises a TAMRA fluorophore linked to a core based on modified ADEP 2378 via a short alkyl linker. Using pin transfer, approximately 0.4 μL (2% v/v DMSO) of each compound or control was added per well. After addition of compounds and controls, plates were allowed to incubate for an additional 120 minutes at room temperature. All assays were performed in triplicate. Polarization was monitored using an EnVision Multilabel reader (Perkin-Elmer, Waltham, Mass.) by exciting the FP probe at 530±25 nm, and monitoring fluorescence intensity of both parallel and perpendicular polarized light at 579±25 nm. Readout was in millipolarization units (mP).
# Data collected was normalized to values obtained from positive (200 μM ADEP 2378) or negative (DMSO) controls. Curves were fit with non-linear regression using the equation “log [inhibitor] vs. Response-variable slope (four parameters)-symmetrical” in the program Prism 6 (GraphPad Software, La Jolla, Calif. USA, www.graphpad.com). The structures for ADEP 2378 and ADEP 2591 are shown above. ADEP 2378 is (E)-N—((S)-1-(((2R,6S,8aS,14aS,20S,23aS)-2,6-dimethyl-5,8,14,19,23-pentaoxooctadecahydro-1H,5H,14H,19H-pyrido[2,1-i]dipyrrolo[2,1-c:2′,1′-1][1]oxa[4,7,10,13]tetraazacyclohexadecin-20-yl)amino)-1-oxo-3-phenylpropan-2-yl)pent-2-enamide. ADEP 2591 is 5-(3-(3-((6S,9S,11aS,17S,20aS)-6,10-dimethyl-5,8,11,16,20-pentaoxo-17-((S)-2-((E)-pent-2-enamido)-3-phenylpropanamido)hexadecahydro-1H,5H,16H-dipyrrolo[2,1-c:2′,1′-1][1]oxa[4,7,10,13]tetraazacyclohexadecin-9-yl)propyl)thioureido)-2-(6-(dimethylamino)-3-(dimethyliminio)-3H-xanthen-9-yl)benzoate.
# [2] = Cytotoxicity assay (CellTiter-Glo cell viability, 72 hours); assay type: cell-based; conditions: African green monkey; Vero cells, 72 hours, growth inhibition; read-out: Cytotoxicity IC50
# Protocol: (§1) Cytotoxicity was determined by determining the effect of compounds on cell viability. Vero (kidney epithelial cells; ATCC CCL-81) monolayers were trypsinized and 5000 cells/well were seeded (10-15% confluency) into white-wall, flat bottom 96 well microwell plates (Corning) using enriched Dulbecco's Modified Eagle's Medium (Hyclone:DMEM/High Glucose) containing 10% Fetal Bovine Serum (ATCC-30-2020). Plates were incubated overnight at 37° C. in the presence of 5% CO2. Drug-free media was then replaced with media containing serial dilutions of test compound or DMSO carrier. After an additional 72 hours of incubation, viability was indirectly measured using the CellTiter-Glo® Luminescent Cell Viability (Promega) assay. Assay plates were read at peak emission wavelength of 560 nm using a EnVision® Multilabel Plate Reader (Perkin Elmer) or PHERAstar FS Multilabel reader (BMG, Cary, N.C.). […] USA, www.graphpad.com]. For each experiment, compounds were tested in duplicate. IC50 values presented are the range of two biologically independent experiments.
# Sa-ClpP [3] = molecular target: T1, Sa-ClpP; experiment: Sa-ClpP casein-BODIPY ClpP activation assay, method variant not marked in Table 5; assay type: biochemical, S. aureus; conditions: values without ** or † mark; assay variant not stated; read-out: ClpP Activation EC50
# Protocol: The compounds were assayed in a casein digestion assay in order to determine their effect on ClpP activation. Briefly, the assay was carried out using S. aureus ClpP (“Sa-ClpP”) overexpressed in E. coli BL21(DE3) and purified in a two-step process. Purity of the protein was assessed through SDS PAGE analysis. EC50 evaluations were conducted in triplicate in a 20 μl assay format using a method adapted from Maurizi et al. (Methods Enzymol. (1994) 244:314-331). Each well contained 10 μM saClpP, 25 μg/ml BODIPY FL casein (Invitrogen Corporation, San Diego, Calif.), and test compound in concentrations ranging between 0-1000 μM in assay buffer (50 mM Tris pH 8, 200 mM KCl, and 1 mM TCEP). The reaction took place at 37° C. Fluorescence (excitation 485 nm; emission 528 nm) was measured in five minute intervals over a 45 min period using a BioTek HT fluorescence microplate reader (BioTek Instruments, Inc., Winooski, Vt.). Velocity of each reaction was calculated and data was fit to a dose response curve using GraphPad Prism® software (GraphPad Software, Inc., La Jolla, Calif.). EC50 is the effective concentration of compound which causes 50% activation of S. aureus ClpP in the foregoing BODIPY FL casein assay.
# Alternatively, the assay was carried out using EnzCheck Protease Assay (Molecular Probes, Catalog # E6638). The assay was performed in black 384 well, flat bottom, low volume plates (Greiner Bio-One, Monroe, N.C., catalog #784076). 10 μL of Tris*HCl buffer, pH 8.0 with 0.01% Triton X-100 was pipetted into each well using a Well-Mate (Thermo Scientific, Waltham, Mass.). 0.4 μL test compounds or controls (2% DMSO v/v) were added to each well using a Biomek FX liquid handling robot (Beckman Coulter, Indianapolis Ind.). After addition of test compounds and controls, 10 μL of master mix containing 2 μM Sa-ClpP and 2 μM substrate (Bodipy-FL labeled casein) in Tris*HCl buffer, pH 8.0 with 0.01% (v/v) Triton X-100, was pipetted into each well. All assays were performed in triplicate, under linear velocity conditions. Increase in fluorescent signal following activation of Sa-ClpP by test compounds and controls was measured over time period of 30 mins using filters with excitation at 485±15 nm and emission at 520±25 nm on a PHERAstar FS Multilabel reader (BMG, Cary, N.C.). […] Data analysis was done by measuring rate of casein degradation over time (slopes). Computed degradation rates (slopes) were normalized to positive (ADEP4) or negative (DMSO) controls. Using nonlinear regression curve fitting EC50 values and % activation were determined using the equation “log [agonist] vs. Response-variable slope (four parameters)-symmetrical” in the program Prism 6 (GraphPad Software, La Jolla, Calif. USA, www.graphpad.com).
# Substituted urea depsipetide analogs were synthesized as described above. The EC50 for ClpP activation was determined in the Sa-ClpP in casein-BODIPY assay as described above. The IC50 for ADEP displacement was determined in the ADEP displacement fluorescent polarization assay as described above; and the IC50 for growth inhibition was determined in the Vero cell cytotoxicity assay as described above. The compound number corresponds to the compound numbers used in Tables 1-4 and the experimental examples described above.
# [4] = tested on: Vero (kidney epithelial cells; ATCC CCL-81); experiment: Cytotoxicity assay (CellTiter-Glo cell viability, 72 hours); assay type: cell-based; conditions: Vero cells, 72 hours, growth inhibition; read-out: Cytotoxicity IC50
# Protocol: as §1
# [5] = tested on: Staphylococcus aureus, USA 300; experiment: Minimal inhibitory concentration assay; assay type: cell-based; conditions: USA300, read-out: Minimal Inhibitory Concentrations S. aureus USA 300
# Method in brief: (§2)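 Visual read-out; MIC is the lowest drug concentration with no bacterial growth after overnight aerobic incubation at 37 °C. Compound was tested in two-fold dilutions starting at 200 μM final, with an inoculum of approximately 10^5 cfu/mL, following CLSI microdilution guidance.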
# [6] = tested on: Staphylococcus aureus, USA 300 wherein ClpP is inactivated; experiment: Minimal inhibitory concentration assay; assay type: cell-based
# Method in brief: as §2
# [7] = tested on: Enterococcus faecalis, ATCC 33186; experiment: Minimal inhibitory concentration assay (microbroth dilution); assay type: cell-based; conditions: Enterococcus faecalis, ATCC33186; read-out: Minimal Inhibitory Concentrations E. faecalis ATCC 33186
# Method in brief: as §2
# [8] = tested on: Staphylococcus aureus, ATCC 29213; experiment: as above; assay type: cell-based; conditions: ATCC29213, read-out: Minimal Inhibitory Concentrations S. aureus ATCC 29213
# Method in brief: as §2
# [9] = tested on: Bacillus subtilis, ATCC 23857; experiment: as above; assay type: cell-based
# Method in brief: as §2
# [10] = tested on: Staphylococcus aureus, NRS70; experiment: as above; assay type: cell-based
# Method in brief: as §2
# [11] = tested on: Streptococcus pyogenes, ATCC 700294; experiment: as above; assay type: cell-based
# Method in brief: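 Plates with two-fold compound dilution series in broth were incubated overnight, aerobically, at 37° C, following CLSI microdilution guidance.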
structure (smiles),measurement,setting,value
"C[C@@H]1C[C@H]2C(=O)O[C@@H](C)[C@H](NC(=O)[C@H](Cc3cc(F)cc(F)c3)NC(=O)Nc3ccc4[nH]cnc4c3)C(=O)N3CCC[C@H]3C(=O)N3CCCC[C@H]3C(=O)N[C@@H](C)C(=O)N2C1 [Compound 303, (S)-2-(3-(1H-benzo[d]imidazol-6-yl)ureido)-3-(3,5-difluorophenyl)-N-((2R,6S,8aS,14aS,20S,21S,23aS)-2,6,21-trimethyl-5,8,14,19,23-pentaoxooctadecahydro-1H,5H,14H,19H-pyrido[2,1-i]dipyrrolo[2,1-c:2′,1′-l][1]oxa[4,7,10,13]tetraazacyclo-hexadecin-20-yl)propanamide] ({X13-CO}-[Phe(3,5-F2)][aThr]P[Pip]A[Pro(4R-Me)]; ester 2-C)",IC50,Sa-ClpP [1],11.1 ± 0.4 µM
same,IC50 at 72 h,[2],> 100 µM
same,EC50,Sa-ClpP [3],1.43 ± 0.03 µM
"C[C@H]1C[C@H]2C(=O)O[C@@H](C)[C@H](NC(=O)[C@H](Cc3cc(F)cc(F)c3)NC(=O)Nc3ccc(OC(F)(F)F)cc3)C(=O)N3CCC[C@H]3C(=O)N3CCCC[C@H]3C(=O)N[C@@H](C)C(=O)N2C1 [Compound 22, (S)-3-(3,5-difluorophenyl)-2-(3-(4-(trifluoromethoxy)phenyl)ureido)-N-((2R,6S,8aS,14aS,20S,21S,23aS)-2,6,21-trimethyl-5,8,14,19,23-pentaoxooctadecahydro-1H,5H,14H,19H-pyrido[2,1-i]dipyrrolo[2,1-c:2′,1′-l][1]oxa[4,7,10,13]tetraazacyclohexadecin-20-yl)propanamide] ({NH(4-OCF3-phenyl)-CO}-[Phe(3,5-F2)][aThr]P[Pip]A[Pro(4S-Me)]; ester 2-C)",IC50,[4],52.3 ± 7.7 µM
"CCCC/C=C/C(=O)N[C@@H](Cc1cc(F)cc(F)c1)C(=O)N[C@@H]1C(=O)N2CCC[C@H]2C(=O)N2CCCC[C@H]2C(=O)N[C@@H](C)C(=O)N2CCC[C@H]2C(=O)O[C@H]1C [ADEP 2719, reference compound] ({Heptenoyl(2E)}-[Phe(3,5-F2)][aThr]P[Pip]AP; ester 2-C)",MIC,[5],< 0.19 µM
same,Minimal Inhibitory Concentrations S. aureus USA 300 ΔClpP,[6],500 µM
same,MIC,[7],0.08 µM
same,MIC,[8],0.07 µM
same,MIC,"[9]; Bacillus subtilis, ATCC23857; read-out: Minimal Inhibitory Concentrations B. subtilis ATCC 23857",< 0.01 µM
same,MIC,"[10]; Staphylococcus aureus, NRS70; read-out: Minimal Inhibitory Concentrations S. aureus NRS70",0.08 µM
same,IC50,[4],37.7 ± 3.4 µM
same,MIC,"[11]; Streptococcus pyogenes, ATCC700294; read-out: Minimal Inhibitory Concentrations S. pyogenes ATCC 700294",< 0.2 µM
"Cc1ccc(NC(=O)N[C@@H](Cc2cc(F)cc(F)c2)C(=O)N[C@H]2COC(=O)[C@@H]3C[C@@H](C)CN3C(=O)[C@H](C)NC(=O)[C@@H]3CCCCN3C(=O)[C@@H]3CCCN3C2=O)cc1 [Compound 24, (S)-3-(3,5-difluorophenyl)-N-((2R,6S,8aS,14aS,20S,23aS)-2,6-dimethyl-5,8,14,19,23-pentaoxooctadecahydro-1H,5H,14H,19H-pyrido[2,1-i]dipyrrolo[2,1-c:2′,1′-l][1]oxa[4,7,10,13]tetraazacyclohexadecin-20-yl)-2-(3-(p-tolyl)ureido)propanamide]",MIC,[8],0.5 µM
same,MIC,"[9]; Bacillus subtilis, ATCC23857, read-out: Minimal Inhibitory Concentrations B. subtilis ATCC 23857",2.2 µM
same,MIC,"[10]; Staphylococcus aureus, NRS70, read-out: Minimal Inhibitory Concentrations S. aureus NRS70",0.5 µM
same,IC50,[4],93.8 ± 4.8 µM
same,MIC,"[11]; Streptococcus pyogenes, ATCC700294, read-out: Minimal Inhibitory Concentrations S. pyogenes ATCC 700294",0.5 µM
